According to the supplement of paper PMC10307832:

Experiments:
Assay in all cases: relative viability (nuclei count vs DMSO), 5 days (fraction); higher = more cells survive
[1] = compound: CCC1=CN=CN=C1N2CCN(CC2)CC3=NC4=C(N3)C=C(C=C4)C(F)(F)F + O=C(c1cc(Cc2n[nH]c(=O)c3ccccc23)ccc1F)N1CCN(C(=O)C2CC2)CC1 [Olaparib] (partner 8 µM)
Method in brief: (§1)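 Lung cancer cell lines were pin-tool dosed in 1536-well plates on the day after seeding, with either a lone drug or a fixed anchor-drug dose plus five library-drug doses (not always all listed) in √10 steps. Nuclei were counted on 4× images after 5 days. Relative viability is the ratio of treated-well to vehicle-well nuclei counts, with each value a median of duplicate plates.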

[2] = compound: CCn1c(-c2nonc2N)nc2cnc(Oc3cccc(NC(=O)c4ccc(OCCN5CCOCC5)cc4)c3)cc21 + CS(=O)(=O)N1CCN(Cc2cc3nc(-c4cccc5[nH]ncc45)nc(N4CCOCC4)c3s2)CC1 [Pictilisib] (partner 1 µM)
Method in brief: as §1

[3] = compound: CCn1c(-c2nonc2N)nc2cnc(Oc3cccc(NC(=O)c4ccc(OCCN5CCOCC5)cc4)c3)cc21 + Nc1nc2[nH]cc(CCc3ccc(C(=O)N[C@@H](CCC(=O)O)C(=O)O)cc3)c2c(=O)[nH]1 [Pemetrexed] (partner 0.2 µM)
Method in brief: as §1

Mirin + Trametinib = compound: N=C1NC(=O)/C(=C/c2ccc(O)cc2)S1 [Mirin] + CC(=O)Nc1cccc(-n2c(=O)n(C3CC3)c(=O)c3c(Nc4ccc(I)cc4F)n(C)c(=O)c(C)c32)c1 [Trametinib] (partner 0.02 µM)
Method in brief: as §1

| Cell Line | relative viability ([1]; first compound 0.04 µM) | relative viability ([1]; first compound 0.1265 µM) | relative viability ([1]; first compound 0.4 µM) | relative viability ([1]; first compound 1.265 µM) | relative viability ([1]; first compound 4 µM) | relative viability ([2]; first compound 0.04 µM) | relative viability ([2]; first compound 0.1265 µM) | relative viability ([2]; first compound 0.4 µM) | relative viability ([2]; first compound 1.265 µM) | relative viability ([2]; first compound 4 µM) | relative viability ([3]; first compound 0.04 µM) | relative viability ([3]; first compound 0.1265 µM) | relative viability ([3]; first compound 0.4 µM) | relative viability ([3]; first compound 1.265 µM) | relative viability ([3]; first compound 4 µM) | relative viability (Mirin + Trametinib; first compound 0.25 µM) | relative viability (Mirin + Trametinib; first compound 0.7906 µM) | relative viability (Mirin + Trametinib; first compound 2.5 µM) | relative viability (Mirin + Trametinib; first compound 7.906 µM) | relative viability (Mirin + Trametinib; first compound 25 µM) |
| --- | --- | --- | --- | --- | --- | --- | --- | --- | --- | --- | --- | --- | --- | --- | --- | --- | --- | --- | --- | --- |
| NCI-H2009 | 0.647 | 0.649 | 0.632 | 0.578 | 0.594 | 0.971 | 0.774 | 0.629 | 0.461 | 0.348 | 0.916 | 0.817 | 0.757 | 0.607 | 0.492 | 0.277 | 0.334 | 0.334 | 0.293 | 0.282 |
| NCI-H1651 | 0.206 | 0.179 | 0.175 | 0.19 | 0.17 | 0.762 | 0.667 | 0.456 | 0.486 | 0.345 | 0.714 | 0.693 | 0.578 | 0.312 | 0.471 | 0.809 | 0.875 | 0.886 | 0.767 | 0.855 |
| HARA | 0.743 | 0.923 | 0.763 | 0.737 | 0.84 | 0.345 | 0.345 | 0.157 | 0.148 | 0.0855 | 0.211 | 0.233 | 0.205 | 0.181 | 0.212 | 0.886 | – | 0.795 | 0.674 | 0.523 |
| NCI-H1944 | 0.622 | 0.395 | 0.378 | 0.344 | 0.361 | 0.373 | 0.341 | – | 0.269 | 0.307 | 0.654 | 0.632 | 0.577 | 0.367 | 0.301 | 0.35 | 0.397 | 0.387 | 0.387 | 0.32 |
| NCI-H2405 | 0.898 | 0.874 | 0.821 | – | 0.919 | 0.454 | 0.23 | 0.15 | 0.261 | 0.171 | 1.01 | 0.395 | 0.315 | 0.247 | 0.284 | 0.615 | – | 0.6 | 0.594 | 0.645 |
| 201T | 0.816 | 0.831 | 0.866 | 0.814 | 0.853 | 0.732 | 0.67 | 0.586 | 0.631 | 0.743 | 0.356 | 0.347 | 0.343 | 0.263 | 0.303 | 0.739 | 0.74 | 0.77 | 0.796 | 0.857 |
| PC-3 [JPC-3] | – | 1.02 | 1.13 | 1.02 | 0.977 | 0.919 | 0.775 | 0.68 | 0.723 | 0.714 | 1.14 | 1.03 | 1.05 | 0.662 | 0.928 | 0.669 | 0.72 | 0.7 | 0.73 | 0.786 |
| NCI-H1650 | 0.682 | 0.797 | 0.708 | 0.642 | 0.907 | 0.9 | 0.595 | 0.551 | 0.502 | 0.527 | 0.343 | 0.326 | 0.389 | 0.334 | 0.343 | 0.534 | 0.544 | 0.579 | 0.551 | 0.62 |
| NCI-H838 | 0.816 | 0.752 | 0.737 | 0.712 | 0.74 | 0.397 | 0.292 | 0.231 | 0.286 | 0.256 | 0.252 | 0.218 | 0.187 | 0.179 | 0.156 | 0.548 | 0.577 | 0.52 | 0.528 | 0.513 |
| NCI-H1792 | 0.895 | 0.406 | 0.369 | – | 0.399 | 0.267 | 0.28 | – | 0.231 | 0.285 | 0.972 | 0.724 | 0.228 | 0.274 | 0.449 | 0.422 | 0.36 | 0.43 | 0.421 | 0.332 |
| COR-L23 | 0.351 | 0.316 | 0.332 | 0.344 | 0.356 | 1.02 | 0.68 | 0.238 | 0.197 | 0.192 | 0.211 | 0.19 | 0.194 | 0.164 | 0.123 | 0.559 | 0.522 | 0.56 | 0.345 | 0.652 |
| ChaGo-K-1 | 0.392 | 0.39 | 0.457 | 0.431 | 0.381 | 1.13 | 0.652 | 0.507 | – | 0.425 | 0.263 | 0.25 | 0.238 | 0.235 | 0.239 | 0.833 | 0.836 | 0.94 | 0.756 | 0.677 |
| HOP-62 | 0.377 | 0.293 | 0.269 | 0.458 | 0.363 | 0.88 | 0.757 | 0.599 | 0.535 | 0.433 | 0.319 | 0.309 | 0.284 | 0.228 | 0.252 | 0.369 | 0.447 | 0.355 | 0.491 | 0.398 |
| NCI-H1915 | 0.27 | 0.248 | 0.252 | 0.268 | 0.249 | 1.01 | 0.971 | 0.908 | 0.648 | 0.64 | 0.497 | 0.494 | 0.448 | 0.183 | 0.174 | 0.29 | 0.332 | 0.28 | 0.328 | 0.389 |
| BEN | 1.01 | 1.08 | 1.03 | 0.629 | 0.598 | 0.574 | 0.501 | 0.43 | 0.285 | 0.318 | 0.725 | 0.647 | 0.395 | 0.412 | 0.534 | 0.942 | 1.01 | 1.16 | 0.825 | 0.591 |
| NCI-H1437 | 0.597 | 0.595 | 0.575 | 0.544 | 0.505 | 0.383 | 0.39 | 0.257 | 0.443 | 0.283 | 0.324 | 0.317 | 0.297 | 0.216 | 0.201 | 0.597 | 0.46 | 0.555 | 0.519 | 0.399 |
| EMC-BAC-2 | 0.505 | 0.503 | 0.47 | 0.447 | 0.479 | 0.655 | 0.517 | 0.395 | 0.382 | 0.339 | 0.419 | 0.377 | 0.298 | 0.298 | 0.311 | 0.934 | 0.889 | 0.875 | 0.761 | 0.957 |
| NCI-H2087 | 0.791 | 0.542 | 0.623 | 0.522 | 0.423 | – | 1.07 | 0.981 | 0.881 | 0.785 | 0.777 | 0.653 | 0.642 | 0.603 | 0.596 | 0.292 | 0.211 | 0.161 | 0.19 | 0.209 |
| NCI-H650 | 0.386 | 0.373 | 0.393 | 0.331 | 0.347 | 1.09 | 0.809 | 0.594 | 0.484 | 0.542 | 1.05 | 0.799 | 0.454 | 0.425 | 0.458 | 1.08 | 0.93 | 0.938 | 0.968 | 0.88 |
| LXF-289 | 1.08 | 1.01 | 1.05 | 1.02 | 0.933 | 0.923 | 0.761 | 0.539 | 0.56 | 0.516 | 0.972 | 0.974 | 0.918 | 0.856 | 0.795 | 0.694 | 0.726 | 0.635 | 0.665 | 0.828 |
| LOU-NH91 | 0.892 | 0.951 | 0.898 | 0.896 | 0.94 | 0.61 | 0.613 | 0.484 | 0.475 | 0.495 | 0.371 | 0.355 | 0.355 | 0.288 | 0.356 | 0.789 | 0.809 | 0.795 | 0.823 | 1.01 |
| NCI-H2347 | 0.6 | 0.654 | 0.603 | 0.59 | 0.575 | 0.94 | 0.648 | 1.05 | 0.556 | 0.563 | 0.438 | 0.424 | 0.399 | 0.33 | 0.371 | 0.301 | 0.313 | 0.26 | 0.3 | 0.274 |
| NCI-H1993 | 0.95 | 1.03 | 1.09 | 0.895 | 0.974 | 0.885 | 0.855 | – | 0.625 | 0.712 | 0.649 | 0.616 | 0.526 | 0.579 | 0.526 | 0.506 | 0.519 | 0.533 | 0.336 | 0.546 |
| HCC-827 | 0.698 | 0.706 | 0.721 | 0.567 | 0.595 | 1.08 | 1.06 | 1.09 | 0.824 | 0.933 | 0.27 | 0.261 | 0.266 | 0.267 | 0.285 | 0.529 | 0.471 | 0.584 | 0.607 | 0.547 |
| NCI-H661 | 0.802 | 0.719 | 0.767 | 0.661 | 0.738 | 0.415 | 0.457 | 0.33 | 0.202 | 0.288 | 0.922 | 0.994 | 0.893 | 0.74 | 0.513 | 0.59 | 0.722 | 0.628 | 0.482 | 0.575 |
| CAL-12T | 0.75 | 0.726 | 0.721 | 0.661 | 0.667 | 0.486 | 0.549 | 0.525 | – | 0.408 | 1.81 | 1.38 | 1.39 | 1.04 | 0.996 | 0.336 | 0.373 | 0.405 | 0.357 | 0.32 |
| PC-14 | 0.231 | 0.275 | 0.29 | 0.25 | 0.261 | 1.06 | 0.708 | 0.751 | 0.619 | 0.666 | 0.136 | 0.149 | 0.131 | 0.138 | 0.177 | 0.788 | 0.893 | 0.725 | 0.725 | 0.776 |
